Measurements reported in US5439944A, “Red blood cell substitute emulsions containing alkyl- or alkylglyucerophosphoryl choline surfactants and methods of use” (priority 1993, dated 1995).

Key:
[1] = tested on: rat whole blood; test: Hemolysis screening of surfactants; type: cell-based; settings: 5% surfactant in 0.9% saline admixed 1:1 with rat whole blood; visually distinct red hue of supernate
Protocol: Surfactant Examples 1a-1k according to general Structure I above, and 2a of Structure II above, were prepared following the above procedures.
(§1) Surfactants were screened initially by preparing 5% solutions/dispersions of the surfactant in 0.9% saline and admixing 1:1 with rat whole blood. Centrifugation (6 minutes) at 2400 rpm afforded packed cells and a supernate. […] The discoloration of the supernate was not quantified colorimetrically.

[2] = tested on: Sprague Dawley rats; test: Preliminary acute toxicity screen; type: in vivo; settings: 5% sonicated dispersion in 0.9% saline, two Sprague Dawley rats, 14 days
[3] = Solubility/dispersion of surfactant in 0.9% saline; type: physicochemical; settings: 5% solution/dispersion in 0.9% saline
Protocol: as §1

[4] = Organ distribution 14 days after infusion (Table V); type: in vivo, rats; settings: for Kidney / Liver / Lung / Spleen / Survival / Hct: 14 days after infusion of 40 cc/Kg; for Hct: hematocrit
Protocol: The impact of the emulsions of Table IV on organ distribution of PFC was then determined by sacrificing the test animals 14 days after infusion.

[5] = Perfluorochemical circulatory blood residence time (fluorocrit); type: in vivo, rats; settings: perfluorochemical remaining at 48 hours
Protocol: The emulsions of Tables II and III were studied in a randomized, ten animal per emulsion experiment in which each animal was infused with 20 cc/Kg of emulsion and sacrificed at 48 hours to determine the circulatory perfluorochemical or perfluorocarbon content called "fluorocrit" and abbreviated "Fct". The Fct represents that percentage of the blood that is perfluorocarbon in v/v %.
After 48 hrs., the animals were anesthetized, the chest cavity was opened, and a blood sample (1-2ml) was withdrawn from the still beating heart. Three to 4 drops of the sample were added to each of three previously tared 4 ml vials containing 10%KOH/EtOH (1.0 ml). The vials were weighed to determine the amount of blood added, then reweighed after an internal standard mixture of 1% octane in CFCl3 (1.5-2.0ml) was added. H2 O was added to the vial until full, then the vial was placed on a rotary shaker at 240 rpm for 20 minutes. The lower layer was withdrawn, and passed through a glass wool plugged pasteur pipette containing silica gel (0.3-0.4g). […] The program parameters specified a hold period at 40° C. for 4 minutes, followed by a 10° C./minute temperature rise until 140° was attained.

[6] = Emulsion mean particle size and stability after 4 days in serum albumin/Lactated Ringer's at 37° C.; type: physicochemical
From the text: The surfactants of Table I were used to make 40 volume % (v/v) perfluorochemical emulsions. In the above described European Pat. Appln. […] Therefore, those perfluorochemical emulsions were used as a control for comparison with the perfluorochemical emulsions of this invention.
For comparison with the data of Table II, the study was repeated with a constant loading of 2 w/v % surfactant, and 2 w/v % safflower oil adjuvant for the control and surfactants of this invention.

[7] = Organ distribution, additional separate study (Table VI); type: in vivo, rats
[8] = Organ distribution, additional separate study (Table VII); type: in vivo, rats
[9] = Blood hematology; type: in vivo, rats; settings: Table VIII, accredited outside laboratories
From the text: The effects on the liver and lung were not as pronounced in Table VI as in Table V. However, with respect to Table VII, it is believed that the smaller values obtained for the liver and spleen are also real.

[10] = K. Yokoyama et al; cited from earlier work

CCCCCCCCOCC(COP(=O)([O-])OCC[N+](C)(C)C)OCCCCCCCC (stereo not shown) [Cpd 1a, 1,2-dioctylglycero-3-phosphoryl choline]
Hemolytic [1]: hemolytic and Yes

CCCCCCCCCCCCCCOCC(COP(=O)([O-])OCC[N+](C)(C)C)OCCCCCCCCCCCCCC (stereo not shown) [Cpd 1b, 1,2-ditetradecylglycero-3-phosphoryl choline]
Hemolytic [1]: hemolytic and Yes

CCCCCCCCCCCCCCCCOCC(COP(=O)([O-])OCC[N+](C)(C)C)OCCCCCCCCCCCCCCCC (stereo not shown) [Cpd 1c, 1,2-dihexadecylglycero-3-phosphoryl choline]
Hemolytic [1]: No | Survival at 40 cc/Kg of 5% solution [2]: 2/2

CCCCCCCCCCCCCCCCCCOCC(COP(=O)([O-])OCC[N+](C)(C)C)OCCCCCCCCCCCCCCCCCC (stereo not shown) [Cpd 1d, 1,2-di-octadecylglycero-3-phosphoryl choline]
Hemolytic [1]: No | Solubility (entry in survival column) [3]: insoluble cpd

CCCCCCCCCCCCCCCCOCC(COP(=O)([O-])OCC[N+](C)(C)C)OCCCCCCCCCCCCCC (stereo not shown) [Cpd 1e, 1-hexadecyl-2-tetradecylglycero-3-phosphoryl choline]
Hemolytic [1]: No | Survival at 40 cc/Kg of 5% solution [2]: 0/2 | Kidney [4]: 1.06 g/100 g | Liver [4]: 7.97 g/100 g | Lung [4]: 0.57 g/100 g | Spleen [4]: 1.55 g/100 g | Survival [4]: 9/10 | Hct [4]: 35.8 v/v %

CCCCCCCCCCCCCCCCCCOCC(COP(=O)([O-])OCC[N+](C)(C)C)OCCCCCCCCCCCCCC (stereo not shown) [Cpd 1f, 1-octadecyl-2-tetradecylglycero-3-phosphoryl choline]
Hemolytic [1]: No | Survival at 40 cc/Kg of 5% solution [2]: 2/2 | circulatory blood residence / stability in the circulatory blood system (in words) [5]: increased stabilities in the circulatory blood system

CCCCCCCCCCCCCCCCCCOC(COCCCCCCCCCCCCCC)COP(=O)([O-])OCC[N+](C)(C)C (stereo not shown) [Cpd 1g, 1-tetradecyl-2-octadecylglycero-3-phosphoryl choline]
Hemolytic [1]: No | Survival at 40 cc/Kg of 5% solution [2]: 0/2 | Kidney [4]: 0.94 g/100 g | Liver [4]: 7.52 g/100 g | Lung [4]: 0.55 g/100 g | Spleen [4]: 1.49 g/100 g | Survival [4]: 6/10 | Hct [4]: 39.0 v/v %

CCCCCCCCCCCCCCCCCCOC(COCCCCCCCCCCCCCCCC)COP(=O)([O-])OCC[N+](C)(C)C (stereo not shown) [Cpd 1h, 1-hexadecyl-2-octadecylglycero-3-phosphoryl choline]
Hemolytic [1]: No | Survival at 40 cc/Kg of 5% solution [2]: 0/2

CCCCCCCC/C=C\CCCCCCCCOCC(COP(=O)([O-])OCC[N+](C)(C)C)OCCCCCCCC/C=C\CCCCCCCC (stereo not shown) [Cpd 1i, 1,2-Dioleylglycerophosphoryl choline]
Hemolytic [1]: No | Survival at 40 cc/Kg of 5% solution [2]: 2/2 | Mean Particle Size ([6]; Table II, 1.8 w/v % Cpd., 2.0 w/v % oil, 40 v/v % PFC emulsion, sterilized 15 min 121° C.): 304 nM | 4 days Serum ([6]; Table II, 1.8 w/v % Cpd., 2.0 w/v % oil, particle size after 4 days at 37° C. in serum albumin/Lactated Ringer's): 258 nM | Mean Particle Size ([6]; Table III, 2 w/v % surfactant, 2 w/v % safflower oil): 323 nM | 4 days Serum ([6]; Table III, 2 w/v % surfactant, 2 w/v % safflower oil, 4 days at 37° C. in serum albumin/Lactated Ringer's): 301 nM | Kidney [4]: 0.96 g/100 g | Liver [4]: 7.47 g/100 g | Lung [4]: 0.64 g/100 g | Spleen [4]: 2.56 g/100 g | Survival [4]: 8/10 | Hct [4]: 34.7 v/v %

CCCCCCCCCCCCCCCCCCOCC(COP(=O)([O-])OCC[N+](C)(C)C)OCCCCCCCCCCCCCCCC (stereo not shown) [Cpd 1j, 1-octadecyl-2-hexadecylglycero-3-phosphoryl choline]
circulatory blood residence / stability in the circulatory blood system (in words) [5]: increased stabilities in the circulatory blood system | Kidney [4]: 0.89 g/100 g | Liver [4]: 6.64 g/100 g | Lung [4]: 0.57 g/100 g | Spleen [4]: 1.66 g/100 g | Survival [4]: 9/10 | Hct [4]: 44.4 v/v % | drop in hematocrit after infusion (in words) ([4]; vs control): so striking | Kidney [7]: 0.97 g/100 g | Liver [7]: 7.44 g/100 g | Lung [7]: 0.98 g/100 g | Spleen [7]: 1.70 g/100 g | Survival [7]: 10/10 | Hct ([7]; hematocrit): 36.1 v/v % | Kidney [8]: 0.901 g/100 g | Liver [8]: 7.39 g/100 g | Lung [8]: 0.828 g/100 g | Spleen [8]: 1.46 g/100 g | Survival [8]: 10/10 | Hct ([8]; hematocrit): 37.7 v/v % | Platelets [9]: 1024222 | RBC [9]: 5.42 | Reticulocytes [9]: 313281 | Hemoglobin ([9]; in g/dL (unit assumed)): 11.04

CCCCCCCCCCCCCCCCOC(COCCCCCCCCCCCCCC)COP(=O)([O-])OCC[N+](C)(C)C (stereo not shown) [Cpd 1k, 1-tetradecyl-2-hexadecylglycero-3-phosphoryl choline]
Kidney [4]: 1.22 g/100 g | Liver [4]: 7.76 g/100 g | Lung [4]: 0.64 g/100 g | Spleen [4]: 2.09 g/100 g | Survival [4]: 9/10 | Hct [4]: 36.5 v/v %

FC(F)(F)C(F)(F)C(F)(F)N(C(F)(F)C(F)(F)C(F)(F)F)C(F)(F)C(F)(F)C(F)(F)F [perfluorotripropylamine]
half life in the liver and other body tissues (in words) [10]: longer than desirable
